Publication PMC7703437, “In Vitro Hepatic Metabolism of Curcumin Diethyl Disuccinate by Liver S9 from Different Animal Species” (Frontiers in Pharmacology, 2020)
Like-named read-outs stand apart in the source and are kept apart here.

Key:
[1] = tested on: hepatic esterases of MLS9; test: Identification of hepatic esterases by chemical inhibition, curcumin formation rate, MLS9; conditions: inhibitor 100 μM (EDTA 1 mM), preincubated 30 min at 37°C, MLS9 0.02 mg/ml, CDD 3 µM, 0.5 min
[2] = tested on: hepatic esterases of HLS9; test: Identification of hepatic esterases by chemical inhibition, curcumin formation rate, HLS9; conditions: inhibitor 100 μM (EDTA 1 mM), preincubated 30 min at 37°C, HLS9 0.02 mg/ml, CDD 3 µM, 1 min
[3] = enzymatic hydrolysis, cited from earlier work
dog LS9 (DLS9; beagle) = test: In vitro metabolism profiling of CDD in dog liver S9 (1 mg/ml); format: in vitro ADME
Description: (§1) The metabolism profiles of CDD were investigated against HLS9, MLS9, DLS9, and RLS9. A stock solution of CDD was prepared at 150 µM in 50% acetonitrile in water before use. The metabolism study was initiated by spiking 735 µl of preincubated LS9 with 15 µl of CDD stock solution, and the mixture was subsequently incubated at 37°C. The final concentrations of CDD and LS9 were 3 μM and 1 mg/ml, respectively. A 50-µl aliquot from the mixture was collected at 0.5, 1, 2, 3, 4, 5, 10, 15, 30, 45, 60, 90, and 120 min and immediately mixed with 100 µl of ice-cold acetonitrile containing 0.45 µM of internal standard DMC to terminate the metabolic reaction. […] The sample at the initial time point (0 min) was prepared as the other samples, except that heat-inactivated HLS9, MLS9, DLS9, and RLS9 (80°C for 20 min; 1 mg/ml protein) were used.
(§2) The UHPLC system consisted of an Agilent series 1290 quaternary pump with an online degasser, autosampler, column oven, and diode array detector. The mobile phase was composed of (A) 0.1% (v/v) formic acid in acetonitrile and (B) 0.1% (v/v) formic acid in water. Each solution was filtered through a nylon filter (pore size, 0.22 µm; MS® Membrane Filters; Membrane Solutions, United States) before use. The mobile phase flow rate was kept at 1.2 ml/min in a gradient mode using the following elution program: 0–3.0 min, initial A-B (40:60, v/v); 4.5–7.0 min, isocratic elution A-B [50:50, (v/v); 8.5–11.0 min, isocratic elution A-B (60:40, v/v); and 12.0–17.0 min, isocratic elution A-B (40:60, v/v)]. CDD, curcumin, and MSCUR in the supernatant were partitioned using a C8 column (4.6 mm × 50 mm, 2.7 µm; HALO, Advanced Materials Technology, United States) with reference to DMC. The detection wavelength was set at 400 nm (λ max(CDD) = 400 nm, λ max(curcumin) = 427 nm, λ max(MSCUR) = 418 nm, and λ max(DMC) = 421 nm). The column was maintained at 35°C throughout the run, and the supernatant injection volume was set at 20 µl.
(§3) The concentrations of CDD, curcumin, and MSCUR in the supernatant were determined from the standard plots, which were prepared by spiking individual working solutions of the compounds to heat-inactivated HLS9, MLS9, DLS9, and RLS9 ([Alcorn et al., 2007]; [Montoro-Garcia et al., 2009]; [Singh et al., 2010]). These working standards were extracted with 100 µl of ice-cold acetonitrile containing 0.45 µM of DMC and then 120 μl of the supernatant was diluted with 40 μl of water prior to the UHPLC analysis. The peak area ratios of CDD, curcumin, and MSCUR to the internal standard were computed against linear concentration ranges of 0.025–4.5 µM CDD, 0.025–4.5 µM curcumin, and 0.0125–0.75 µM MSCUR, respectively, with the coefficient of determination (r^2) values greater than 0.99.
(§4) The percent content of CDD and the metabolites formed upon its incubation with LS9, namely, curcumin and MSCUR, was plotted against incubation time.
(§5) The following equations were adopted to describe the changes in CDD and MSCUR content over time (t): A = A0e^−k1t (2) B= k1A0/k2−k1(e^−k1t−e^−k2t), (3) where A0 is the CDD concentration at time 0, k 1 is the degradation rate constant of CDD, and k 2 is the degradation rate constant of MSCUR. k 1 and k 2 were determined by using Eqs. 2 and 3, respectively, with nonlinear regression analysis using the SOLVER function of Microsoft Excel for Office 365 MSO (16.0.12527.20986) ([Brown, 2001]). The half-life (t 1/2) was calculated using Eq. 4: t1/2=0.693/k (4)
(§6) The in vitro intrinsic clearance (CLint,in vitro) of CDD and MSCUR in LS9 was calculated using Eq. 5: CLint, in vitro= k × [V]incubation(ml)/[P]incubation(mg protein), (5) where [V]incubation is the incubation volume in ml, and [P]incubation is the amount of LS9. […]

[4] = as above; format: in vitro ADME, dog (beagle); conditions: beagle, liver S9; dog LS9 1 mg/ml; read-out: t 1/2 (MSCUR)
Description: as §1, §2, §3, §4, §5, §6

[5] = tested on: LS9 from all tested species (HLS9, MLS9, DLS9, RLS9); test: In vitro metabolism profiling of CDD, statements for LS9 from all tested species; format: in vitro ADME, human, monkey, dog, rat
Description: as §1, §2
The concentrations of CDD, curcumin, and MSCUR in the supernatant were determined from the standard plots, which were prepared by spiking individual working solutions of the compounds to heat-inactivated HLS9, MLS9, DLS9, and RLS9 ([Alcorn et al., 2007]; [Montoro-Garcia et al., 2009]; [Singh et al., 2010]). […]
as §5, with “2 and 3, respectively, with nonlinear regression analysis using the SOLVER function of Microsoft Excel for Office 365 MSO (16.0.12527.20986) ([Brown, 2001]).” left out

[6] = tested on: monkey LS9 (MLS9; cynomolgus); test: In vitro metabolism profiling of CDD in monkey liver S9 (1 mg/ml); format: in vitro ADME
Description: as §1, §2, §3, §4, §5, §6

[7] = as above; format: in vitro ADME, monkey (cynomolgus); conditions: liver S9; monkey LS9 1 mg/ml; read-out: t 1/2 (MSCUR)
Description: as §1, §2, §3, §4, §5, §6

[8] = tested on: rat LS9 (RLS9; Sprague–Dawley); test: In vitro metabolism profiling of CDD in rat liver S9 (1 mg/ml); format: in vitro ADME
Description: as §1, §2, §3, §4, §5, §6

[9] = as above; format: in vitro ADME, rat (Sprague–Dawley); conditions: Sprague-Dawley, liver S9; rat LS9 1 mg/ml; read-out: t 1/2 (MSCUR)
Description: as §1, §2, §3, §4, §5, §6

human LS9 (HLS9; pooled) = test: In vitro metabolism profiling of CDD in human liver S9 (1 mg/ml); format: in vitro ADME
Description: as §1, §2, §3, §4, §5, §6

[10] = as above; format: in vitro ADME; conditions: pooled liver S9; human LS9 1 mg/ml; read-out: t 1/2 (MSCUR)
Description: as §1, §2, §3, §4, §5, §6

## C=CC[N+](C)(C)c1ccc(CCC(=O)CCc2ccc([N+](C)(C)CC=C)cc2)cc1.[Br-].[Br-] [1,5-bis(4-allyldimethylammoniumphenyl) pentan-3-one dibromide]
[1]
  inhibition of CDD hydrolysis in MLS9 (relative curcumin formation rate): no enzyme inhibitory effects

## O=[N+]([O-])c1ccc(OP(=O)(O)Oc2ccc([N+](=O)[O-])cc2)cc1 [BNPP, Bis(4-nitrophenyl) phosphate]
[2]
  inhibition of CDD hydrolysis in HLS9 (relative curcumin formation rate): inhibited
[1]
  inhibition of CDD hydrolysis in MLS9 (relative curcumin formation rate): inhibited

## O=C(O)c1cc(SSc2ccc([N+](=O)[O-])c(C(=O)O)c2)ccc1[N+](=O)[O-] [DTNB, 5,5′-dithiobis (2-nitrobenzoic acid)]
[2]
  inhibition of CDD hydrolysis in HLS9 (relative curcumin formation rate): to a lesser extent
[1]
  inhibition of CDD hydrolysis in MLS9 (relative curcumin formation rate): no enzyme inhibitory effects

## O=C(O)CN(CCN(CC(=O)O)CC(=O)O)CC(=O)O [EDTA, ethylenediaminetetraacetic acid]
[1]
  inhibition of CDD hydrolysis in MLS9 (relative curcumin formation rate): no enzyme inhibitory effects

## CC(C)OC(=O)[C@H](C)N[P@](=O)(OC[C@H]1O[C@@](C#N)(c2ccc3c(N)ncnn23)[C@](C)(O)[C@@H]1OC(=O)C(C)C)Oc1ccccc1 [GS-6620]
[3]; ref Murakami et al., 2014
  t 1/2: approximately 4.0 min

## CCOC(=O)CCC(=O)Oc1ccc(/C=C/C(=O)/C=C(O)/C=C/c2ccc(O)c(OC)c2)cc1OC [MSCUR, monoethylsuccinyl curcumin]
Dog LS9 (DLS9; beagle); DLS9 vs HLS9
  CLint, in vitro(MSCUR) of DLS9 higher than that of HLS9: approximately two
Dog LS9 (DLS9; beagle); dog LS9
  CLint, in vitro(MSCUR): 24.61 ± 2.55 ml min^−1 mg protein^−1
Dog LS9 (DLS9; beagle); dog LS9 1 mg/ml, CDD 3 µM, 37°C
  k 2 (MSCUR): 24.61 ± 2.55 min⁻¹
Dog LS9 (DLS9; beagle); dog, scaled from CLint,in vitro
  CLint, in vivo(MSCUR): 5,716.98 ± 592.58 L h^−1 kg^−1
[4]
  half-life at 3 µM: 1.704 ± 0.0018 s
[5]; at 0.5 min of incubation of CDD 3 µM in LS9
  maximum amount of M2 or MSCUR: approximately 10%
[6]; MLS9 vs HLS9
  CLint, in vitro(MSCUR) of MLS9 higher than that of HLS9: ~1.7 fold
[6]; monkey LS9
  CLint, in vitro(MSCUR): 20.79 ± 3.13 ml min^−1 mg protein^−1
[6]; monkey LS9 1 mg/ml, CDD 3 µM, 37°C
  k 2 (MSCUR): 20.79 ± 3.13 min⁻¹
[6]; monkey, scaled from CLint,in vitro
  CLint, in vivo(MSCUR): 4,527.30 ± 682.15 L h^−1 kg^−1
[7]
  half-life at 3 µM: 2.034 ± 0.00324 s
[8]; RLS9 vs HLS9
  CLint, in vitro(MSCUR) of RLS9 lower than that of HLS9: 0.8 fold
[8]; rat LS9
  CLint, in vitro(MSCUR): 9.66 ± 0.60 ml min^−1 mg protein^−1
[8]; rat LS9 1 mg/ml, CDD 3 µM, 37°C
  k 2 (MSCUR): 9.66 ± 0.60 min⁻¹
[8]; rat, scaled from CLint,in vitro
  CLint, in vivo(MSCUR): 2,805.37 ± 174.76 L h^−1 kg^−1
[9]
  half-life at 3 µM: 4.314 ± 0.00264 s
Human LS9 (HLS9; pooled); human LS9
  CLint, in vitro(MSCUR): 12.07 ± 0.86 ml min^−1 mg protein^−1
Human LS9 (HLS9; pooled); human LS9 1 mg/ml, CDD 3 µM, 37°C
  k 2 (MSCUR): 12.07 ± 0.86 min⁻¹
Human LS9 (HLS9; pooled); human, scaled from CLint,in vitro
  CLint, in vivo(MSCUR): 2,251.20 ± 161.06 L h^−1 kg^−1
[10]
  half-life: 3.456 ± 0.00252 s

## O=C([O-])c1cc[c]([Hg][OH])cc1.[Na+] [PCMB, 4-(hydroxymercurio) benzoic acid sodium salt]
[2]
  inhibition of CDD hydrolysis in HLS9 (relative curcumin formation rate): inhibited
[1]
  inhibition of CDD hydrolysis in MLS9 (relative curcumin formation rate): no enzyme inhibitory effects

## O=S(=O)(F)Cc1ccccc1 [PMSF, phenylmethylsulfonyl fluoride]
[2]
  inhibition of CDD hydrolysis in HLS9 (relative curcumin formation rate): to a lesser extent

## C[C@@H]1CC[C@@]2(OC1)O[C@H]1[C@@H](O)[C@H]3[C@@H]4CC[C@H]5C[C@@H](O[C@@H]6O[C@H](CO)[C@H](O[C@@H]7O[C@H](CO)[C@@H](O)[C@H](O[C@@H]8OC[C@@H](O)[C@H](O)[C@H]8O)[C@H]7O[C@@H]7O[C@H](CO)[C@H](O)[C@H](O[C@@H]8O[C@H](CO)[C@@H](O)[C@H](O)[C@H]8O)[C@H]7O)[C@H](O)[C@H]6O)[C@H](O)C[C@]5(C)[C@H]4CC[C@]3(C)[C@H]1[C@@H]2C [digitonin]
[2]
  inhibition of CDD hydrolysis in HLS9 (relative curcumin formation rate): inhibited

## CC(C)NP(=O)(NC(C)C)OP(=O)(NC(C)C)NC(C)C [iso-OMPA, tetra(monoisopropyl) pyrophosphortetramide]
[2]
  inhibition of CDD hydrolysis in HLS9 (relative curcumin formation rate): to a lesser extent

## CN(C)C(=O)C(CCN1CCC(O)(c2ccc(Cl)cc2)CC1)(c1ccccc1)c1ccccc1 [loperamide]
[2]
  inhibition of CDD hydrolysis in HLS9 (relative curcumin formation rate): inhibited

## COC(=O)[C@H](c1ccccc1Cl)N1CCc2sc(OC(C)=O)cc2C1 [vicagrel]
[3]; ref Qiu et al., 2016
  t 1/2: approximately 1.6 min

## curcumin
[5]; following 15 min of incubation of CDD 3 µM in each LS9
  curcumin (M1) produced: ~70%
